Measurements published in patent publication US20230093073A1, “METHODS AND COMPOSITIONS FOR COMMUNITY-BASED SCREENING OF POLYMICROBIAL INFECTIONS” (REGENTS OF THE UNIVERSITY OF MINNESOTA, priority 2020, published 2023).

Tests used:
[1] = tested on: P. aeruginosa and anaerobic bacteria capable of degrading mucins; details: cited from earlier work
[2] = tested on: P. aeruginosa; experiment: Antibiotic susceptibility testing (MIC) of P. aeruginosa isolates from CF sputum in LB; type: cell-based, Pseudomonas aeruginosa; details: isolates from adult CF sputum, nutrient-rich LB, aerobic, 37° C., 24 h
Description: (§1) To further test this idea under clinically relevant conditions, sputum was collected from adult CF patients and isolated P. aeruginosa from each sample (FIG. 1B). Using a panel of widely used CF antibiotics (tobramycin, aztreonam, levofloxacin, piperacillin-tazobactam) and others lacking conventional activity against P. aeruginosa (trimethoprim-sulfamethoxazole, metronidazole), MICs for each isolate were determined under nutrient-rich conditions (akin to standard AST procedures). Concurrently, enrichment culturing was performed to isolate anaerobic mucin-degrading bacteria from each sample (10) and antibiotic MICs were similarly determined. Finally, small aliquots of remaining sputa were diluted in buffer and split between culture tubes containing mucin as the sole carbon source, 1% agarose, and one of the antibiotics listed above. Using these cultures in which P. aeruginosa and anaerobic mucin-degraders were co-dependent on mucin utilization, how co-operative growth affected antibiotic sensitivity relative to independent culture was interrogated.
Pseudomonas aeruginosa isolation. 100 μL of sputum was streaked onto Pseudomonas isolation agar and incubated at 37° C. for 72 hours. A single isolate from each sample was screened by PCR to confirm identity and stored in 30% glycerol at −80° C.
Antibiotic susceptibility testing. For anaerobic AST, 5 μL of enrichment culture was added to each well of microtiter plate containing MMM supplemented with gradients of seven antibiotics (aztreonam 0-500 μg/mL; doxycycline, 0-25 μg/mL; levofloxacin, 0-25 μg/mL; metronidazole, 0-25 μg/mL; piperacillin/tazobactam, 0-25 μg/mL; tobramycin, 0-500 μg/mL; trimethoprim/sulfamethoxazole, 0-25 μg/mL). Plates were wrapped in parafilm and incubated anaerobically at 37° C. for 72 h. For P. aeruginosa, isolates were grown in lysogeny broth (LB) to an OD600 of 0.5. 5 μL was then added to a similar plate containing LB as the base medium and incubated aerobically at 37° C. for 24 h. Plates were resuspended by pipetting and read spectrophotometrically at OD600 using a BioTek Synergy plate reader. MICs were determined based on the antibiotic concentration required to achieve a 90% reduction in culture density relative to antibiotic-free controls.

[3] = tested on: sputum bacterial communities; experiment: Mucin co-culture of CF sputum bacterial communities, community growth by 16S rRNA gene qPCR; type: cell-based; details: for whether presence of at least one antibiotic-susceptible population predicts community failure in co-culture: sputum co-culture vs individual MICs of P. aeruginosa and anaerobes; for effect on co-operative community growth (16S rRNA gene copies relative to untreated control, FIG. 2C): sputum co-culture, mucin sole carbon source, 1% agarose, 72 h, one fixed concentration per antibiotic
Description: as §1
It was assessed whether co-operative community growth (see FIG. 1A) would affect antibiotic susceptibility. Specifically, we hypothesized that the sensitivity of the overall sputum bacterial community would be set by the least tolerant among P. aeruginosa and anaerobic subpopulations. To test this hypothesis, total 16S rRNA gene copy number was used to quantify community growth in response to each antibiotic relative to untreated controls (FIG. 2C).
Co-culture. Under anaerobic conditions, 200 μL of homogenized sputum was placed into one of eight tubes to which a pre-determined concentration of each antibiotic was added (aztreonam, 100 μg/mL; doxycycline, 6.5 μg/mL; levofloxacin, 6.5 μg/mL; metronidazole, 3.5 μg/mL; piperacillin/tazobactam, 6.5 μg/mL; tobramycin, 500 μg/mL; trimethoprim/sulfamethoxazole, 3.5 μg/mL). […] 200 μL of molten 2% low melting point agarose in PBS was added to each tube and homogenized by pipetting. Each mixture was then added to 0.5 mL Pyrex culture tubes forming a gel upon cooling. Upon removal from the anaerobic chamber, tubes were incubated at 37° C. for 72 h and frozen at −80° C.
DNA extraction. Agar plugs were removed from the culture tubes, transferred to a Matrix E Lysing Tubes (MP Biomedicals) and two volumes of lysis buffer were added. Tubes were vortexed on a bead beater for 2×30 s, followed by centrifugation at 9,500×g for 1 min. Supernatant was transferred to a new tube, incubated at 75° C. for 10 min and returned to room temperature. Lysozyme and RNAse A were then added to final concentrations of 0.2 mg/mL and 50 μg/mL, respectively, and incubated for 1 h at 37° C. […], of 10% SDS and proteinase K (2 mg/mL) were added and incubated overnight at 55° C.
DNA was extracted by adding one volume of phenol:chloroform:iosoamyl alcohol (25:24:1) and vortexing to emulsify. Samples were centrifuged at 21,000×g for 20 min and the upper aqueous layer transferred to a new tube. One volume of chloroform:IAA was then added followed by centrifugation at 21,000×g for 15 min. The upper layer was transferred to a new tube. 3M sodium acetate (pH 5.2) was added and mixed gently, followed by the addition of 1 volume of isopropanol and 3 μL GlycoBlue. Samples were centrifuged for 20 min at 21,000×g and supernatant removed. Pellets were washed using 80% ethanol, air dried for ˜30 min and resuspended in 10 mM Tris (pH 8) prior to storage at −80° C.
qPCR. Community growth was estimated by quantifying 16S rRNA gene copies from co-culture DNA.

[4] = tested on: anaerobic mucin-degrading bacteria; experiment: Anaerobic antibiotic susceptibility testing (MIC) of enrichment cultures from CF sputum in minimal mucin medium; type: cell-based; details: MMM, 37° C., 72 h
Description: as §1
Anaerobic enrichment. […]
Antibiotic susceptibility testing. […] Plates were resuspended by pipetting and read spectrophotometrically at OD600 using a BioTek Synergy plate reader. MICs were determined based on the antibiotic concentration required to achieve a 90% reduction in culture density relative to antibiotic-free controls.

Row | Compound | efficacy against P. aeruginosa isolates (MICs, FIG. 2A) [2] | whether presence of at least one antibiotic-susceptible population predicts community failure in co-culture [3] | effect on co-operative community growth (16S rRNA gene copies relative to untreated control, FIG. 2C) [3] | efficacy against anaerobic enrichments (MICs, FIG. 2B) [4] | further results
1 | CC1(C)S[C@@H]2[C@H](NC(=O)[C@H](N)c3ccccc3)C(=O)N2[C@H]1C(=O)O [ampicillin] |  |  |  |  | P. aeruginosa growth in co-culture with mucin-degrading anaerobes ([1]; co-culture on mucins as sole carbon source, inhibition of anaerobic subpopulation): constrained P. aeruginosa growth; resistance of P. aeruginosa determined by standard AST ([1]; standard AST, monoculture): high intrinsic resistance
2 | trimethoprim-sulfamethoxazole | some isolates were resistant | largely predictive of community failure | variable effects |  | community growth, patients 3 and 4 ([3]; patients 3 and 4, antibiotic predicted ineffective from individual MICs, T/S 3.5 μg/mL): surprisingly inhibited
3 | Cc1ncc([N+](=O)[O-])n1CCO [metronidazole] | ineffective |  | striking effect on co-operative cultures |  | sputum community growth, patient 5 ([3]; patient 5, both subpopulations independently resistant, metronidazole 3.5 μg/mL): robust
4 | C[C@H]1[C@H](NC(=O)/C(=N\OC(C)(C)C(=O)O)c2csc(N)n2)C(=O)N1S(=O)(=O)O [aztreonam] | some isolates were resistant | largely predictive of community failure |  | variable efficacy | growth of two aztreonam-resistant P. aeruginosa isolates in co-culture ([3]; co-culture with aztreonam-susceptible anaerobic mutualists, aztreonam 100 μg/mL): restricted in co-culture
5 | piperacillin-tazobactam | some isolates were resistant | largely predictive of community failure |  |  | 
6 | NC[C@H]1O[C@H](O[C@H]2[C@H](O)[C@@H](O[C@H]3O[C@H](CO)[C@@H](O)[C@H](N)[C@H]3O)[C@H](N)C[C@@H]2N)[C@H](N)C[C@@H]1O [tobramycin] | broadly effective |  | striking effect on co-operative cultures | all anaerobic enrichments demonstrated resistance | 
